Converted amounts (≈) assume the structure as drawn.
What was measured:
[1] = Solubility (excess compound shaken 1 day at room temperature, HPLC); assay type: physicochemical; settings: thermodynamic from solid
Protocol: An excess of compound was added to the solvent (the type of solvent is specified in table 6) The mixture was shaken during 1 day at room temperature. The precipitate was filtered off. The concentration of the compound was measured via HPLC and is shown in the column “Solubility”.

[2] = Chemical stability (open glass jar, 40° C., 75% relative humidity); assay type: physicochemical; settings: 50 mg, after one week
Protocol: After one week, the amount of test compound remaining was determined.

Aspergillus fumigatus [3] = assay: Determination of fungal susceptibility (MIC); assay type: cell-based; settings: CYG medium, 5 days at 30° C., growth to 35% of control or less
Protocol: (§1) A panel of Candida isolates plus single isolates of the dermatophytes Microsporum canis, Trichophyton rubrum and T. mentagrophytes; Aspergillus fumigates, and Cryptococcus neoformans were used to evaluate the activity of the test compounds in vitro. Inocula were prepared as broth cultures (yeasts) or as suspensions of fungal material made from agar slope cultures (moulds). The test compounds were pipetted from DMSO stock solution into water to provide a series of 10-fold dilutions. The fungal inocula were suspended in the growth medium CYG (F. C. Odds, Journal of Clinical Microbiology, 29, (2735-2740, 1991) at approximately 50,000 colony-forming units (CFU) per ml and added to the aqueous test drugs. The cultures were set up in the 96 wells of plastic microdilution plates and they were incubated for 2 days at 37° C. (Candida spp.) or for 5 days at 30° C. (other fungi). Growth in the microcultures was measured by their optical density (OD) measured at a wavelength of 405 nm. The OD for cultures with test compounds was calculated as a percentage of the control, drug-free OD. Inhibition of growth to 35% of control or less was recorded as significant inhibition.
(§2) Minimal inhibitory concentration (MICs; in 10^−6 M) of intermediate 2 as the major metabolite and some of the compounds of formula (I) for Candida glabrata, Candida krusel, Candida parapsilosis, Candida albicans, Candida kefyr, Candida tropicalis, Microsporum canis, Trichophyton rubrum, Trichophyton mentagrophytes, Cryptococcus neoformans, Aspergillus fumigatus are listed in table 8.

Candida albicans [4] = assay: Determination of fungal susceptibility (MIC); assay type: cell-based; settings: CYG medium, 2 days at 37° C., growth to 35% of control or less
Protocol: as §1, §2

Candida glabrata = assay: Determination of fungal susceptibility (MIC); assay type: cell-based; settings: CYG medium, 2 days at 37° C., growth to 35% of control or less
Protocol: as §1, §2

Candida kefyr = assay: Determination of fungal susceptibility (MIC); assay type: cell-based; settings: CYG medium, 2 days at 37° C., growth to 35% of control or less
Protocol: as §1, §2

Candida krusei = assay: Determination of fungal susceptibility (MIC); assay type: cell-based; settings: CYG medium, 2 days at 37° C., growth to 35% of control or less
Protocol: as §1, §2

Candida parapsilosis = assay: Determination of fungal susceptibility (MIC); assay type: cell-based; settings: CYG medium, 2 days at 37° C., growth to 35% of control or less
Protocol: as §1, §2

Candida tropicalis = assay: Determination of fungal susceptibility (MIC); assay type: cell-based; settings: CYG medium, 2 days at 37° C., growth to 35% of control or less
Protocol: as §1, §2

Cryptococcus neoformans = assay: Determination of fungal susceptibility (MIC); assay type: cell-based; settings: CYG medium, 5 days at 30° C., growth to 35% of control or less
Protocol: as §1, §2

Microsporum canis = assay: Determination of fungal susceptibility (MIC); assay type: cell-based; settings: CYG medium, 5 days at 30° C., growth to 35% of control or less
Protocol: as §1, §2

[5] = system: Trichophyton mentagrophytes; assay: Determination of fungal susceptibility (MIC); assay type: cell-based; settings: CYG medium, 5 days at 30° C., growth to 35% of control or less
Protocol: as §1, §2

Trichophyton rubrum = assay: Determination of fungal susceptibility (MIC); assay type: cell-based; settings: CYG medium, 5 days at 30° C., growth to 35% of control or less
Protocol: as §1, §2

Aspergillus fumigatus [6] = assay: Disseminated aspergillosis in guinea-pigs; assay type: in vivo; settings: for CFU/g (liver): culture-positive livers post mortem; for % neg (total percentage culture-negative deep tissues): liver, spleen, kidney, lung and brain
Protocol: (§3) Specific pathogen-free (SPF) guinea-pigs (weighing 400-500 g) were used in all experiments. A catheter was placed into the left jugular vein of the animals that were treated by intravenous infusion, the vein was ligated, and the catheter was connected to a microprocessor-controlled infusion pump. The animals were infected with Aspergillus fumigatus (4,000 CFU/g body weight) or with Candida albicans (40,000 CFU/g body weight) either via the lateral vein of the penis or via the implanted catheter. Intravenous treatments (5 mg/kg/day) began 1 hour after infection. The test formulations were then administered on subsequent days as two, 1 hour infusions daily, separated by a period of 5 hours, for a total of 19 infusions or 9.5 days. Oral treatments with the test compounds (5 mg/kg/day) begun 1 hour after infection and were repeated twice daily up to the tenth day after infection (a total of 19 treatments. For each group of tested animals (number of tested animals per group given in column “N”), the mean survival time (MST) in days was recorded as well as the % survivors (% surv). Animals of each group which died during the experiment and those that survived the experiment and were killed, were investigated for counts of Aspergillus fumigatus and Candida albicans in deep tissue (liver, spleen, kidney, lung and brain) post mortem. The remaining CFU/g in the culture-positive livers was measured and expressed in table 9 (after intravenous treatment) and table 10 (after oral treatment) as mean log10 CFU/g. The columns “%neg” in tables 9 and 10 express the total percentage culture-negative deep tissues after the treatment.

Candida albicans [7] = assay: Disseminated candidosis in guinea-pigs; assay type: in vivo; settings: for CFU/g (liver): culture-positive livers post mortem; for % neg (total percentage culture-negative deep tissues): liver, spleen, kidney, lung and brain
Protocol: as §3

[8] = i.v. treatment 5 mg/kg/day, 19 infusions, 9.5 days
[9] = oral treatment 5 mg/kg/day, twice daily, 19 treatments

For `C[C@H](OC(=O)[C@@H](N)Cc1ccccc1)[C@H](C)n1ncn(-c2ccc(N3CCN(c4ccc(OC[C@@H]5CO[C@@](Cn6cncn6)(c6ccc(F)cc6F)O5)cc4)CC3)cc2)c1=O` (relative stereo) [Compound 23, [2S-[2α,4α[(R*,R*)]]]-2-[4-[4-[4-[4-[[2-(2,4-difluorophenyl)-2-(1H-1,2,4-triazol-1-ylmethyl)-1,3-dioxolan-4-yl]methoxy]-phenyl]-1-piperazinyl]-phenyl]-4,5-dihydro-5-oxo-1H-1,2,4-triazol-1-yl]-1-methylpropyl L-phenylalanine], the solubility at 1 day ([1]; aqueous buffer, solvent 0.0001M HCl, final pH in column pH of the same row (3.17-6.68)) was 20 µg/mL (≈ 23.9 µM), the solubility at 1 day ([1]; simulated gastric fluid, solvent 0.1M HCl, final pH in column pH of the same row (1.23-1.55)) was over 5560 µg/mL and the “Stability (amount of test compound remaining)” value [2] was 99.7%. The MIC (Aspergillus fumigatus [3]) was 1 10^−6 M, the MIC (Candida albicans [4]) was <0.1 10^−6 M and the MIC (Candida glabrata) was 10 10^−6 M. The MIC (Candida kefyr) was <0.1 10^−6 M, the MIC (Candida krusei) was 1 10^−6 M and the MIC (Candida parapsilosis) was <0.1 10^−6 M. For the same compound, the MIC (Candida tropicalis) was <0.1 10^−6 M, the MIC (Cryptococcus neoformans) was 1 10^−6 M and the MIC (Microsporum canis) was <1 10^−6 M. For the same compound, the MIC [5] was 1 10^−6 M, the MIC (Trichophyton rubrum) was <0.1 10^−6 M and the “CFU/g (liver)” value (Aspergillus fumigatus [6]; i.v. treatment 5 mg/kg/day) was 3.6 mean log10 CFU/g. For the same compound, the “CFU/g (liver)” value (Aspergillus fumigatus [6]; oral treatment 5 mg/kg/day) was 3.0 mean log10 CFU/g, the “% surv (% survivors)” value (Aspergillus fumigatus [6]; [8]) was 83.3% and the “MST (mean survival time)” value (Aspergillus fumigatus [6]; [8]) was 9.2 days. The “% neg (total percentage culture-negative deep tissues)” value (Aspergillus fumigatus [6]; i.v. treatment 5 mg/kg/day) was 71%, the “% neg (total percentage culture-negative deep tissues)” value (Aspergillus fumigatus [6]; oral treatment 5 mg/kg/day) was 55% and the “% surv (% survivors)” value (Aspergillus fumigatus [6]; [9]) was 30%. The “MST (mean survival time)” value (Aspergillus fumigatus [6]; [9]) was 7.8 days, the “CFU/g (liver)” value (Candida albicans [7]; i.v. treatment 5 mg/kg/day) was 0 mean log10 CFU/g and the “CFU/g (liver)” value (Candida albicans [7]; oral treatment 5 mg/kg/day) was 0 mean log10 CFU/g. The “% surv (% survivors)” value (Candida albicans [7]; [8]) was 83.3%, the “MST (mean survival time)” value (Candida albicans [7]; [8]) was 9.8 days and the “% neg (total percentage culture-negative deep tissues)” value (Candida albicans [7]; i.v. treatment 5 mg/kg/day) was 79%. The “% neg (total percentage culture-negative deep tissues)” value (Candida albicans [7]; oral treatment 5 mg/kg/day) was 73%, the “% surv (% survivors)” value (Candida albicans [7]; [9]) was 100% and the “MST (mean survival time)” value (Candida albicans [7]; [9]) was 10 days.

Reference: patent publication US6703506B2, “Amino acid ester containing azole antifungals” (Janssen Pharmaceutica, N.V., priority 1997, dated 2004)
